Type in all cases: in vivo, mouse
A short description of experiment [1]: Body weight of R6/2 mice under chronic treatment. On the procedure: Study Summary-A total of 46 male R6/2 mice and 15 male wild-type littermate control mice (WT) were used in the study. The mice were genotyped and the R6/2 mice were divided into different treatment groups based on their pre-treatment body weight. The treatment with Compound (Ia) (0.5 or 5 mg/kg; 10 ml/kg, intraperitoneally (i.p.), QD) or Vehicle (10 ml/kg, i.p., QD) was started at 4 weeks of age. Body weights were measured before the treatment onset and continued twice a week until the end of the study. Fine motor kinematic analysis and rotarod test were performed at 10 weeks of age and the open field activity and clasping behavior were measured at 12 weeks of age for all mice. At 8 and 12 weeks of age the glucose uptake was measured by ^18F-FDG PET and the striatal metabolites were measured using MR spectroscopy for 9-10 mice per group. At 13 weeks of age 9-10 mice per group were subjected to tissue sample collection, and the brain and blood samples were collected. The blood samples were used to prepare peripheral blood mononuclear cells (PBMCs) on which the flow cytometry/luminescence analysis was performed for following assays: mitochondrial reactive oxygen species (ROS) (MitoSox), and ATP levels (Cell TiterGlow). […] Body Weights-Body weights were measured at 4 weeks of age (pre-treatment) and twice a week until the end of the study. […]

In experiment [2] the test system is R6/2 mice. The experiment in a line: Open field test in R6/2 mice. The settings on record: 12 weeks of age. The protocol: Study Summary—A total of 46 male R6/2 mice and 15 male wild-type littermate control mice (WT) were used in the study. The mice were genotyped and the R6/2 mice were divided into different treatment groups based on their pre-treatment body weight. The treatment with Compound (Ia) (0.5 or 5 mg/kg; 10 ml/kg, intraperitoneally (i.p.), QD) or Vehicle (10 ml/kg, i.p., QD) was started at 4 weeks of age. Body weights were measured before the treatment onset and continued twice a week until the end of the study. Fine motor kinematic analysis and rotarod test were performed at 10 weeks of age and the open field activity and clasping behavior were measured at 12 weeks of age for all mice. At 8 and 12 weeks of age the glucose uptake was measured by ^18F-FDG PET and the striatal metabolites were measured using MR spectroscopy for 9-10 mice per group. […] The blood samples were used to prepare peripheral blood mononuclear cells (PBMCs) on which the flow cytometry/luminescence analysis was performed for following assays: mitochondrial reactive oxygen species (ROS) (MitoSox), and ATP levels (Cell TiterGlow). […]
Open Field Test—At 12 weeks of age all mice were subjected to open field test. […] Mice were placed in the center of the chamber and their behavior was recorded for 30 min in 5-min bins. […]

Experiment [3] concerns R6/2 mice. As to the kind of experiment: Rotarod test in R6/2 mice. The settings on record: 5 mg/kg i.p. QD, 10 weeks of age, p<0.05, One-way ANOVA. The protocol: Study Summary—A total of 46 male R6/2 mice and 15 male wild-type littermate control mice (WT) were used in the study. The mice were genotyped and the R6/2 mice were divided into different treatment groups based on their pre-treatment body weight. The treatment with Compound (Ia) (0.5 or 5 mg/kg; 10 ml/kg, intraperitoneally (i.p.), QD) or Vehicle (10 ml/kg, i.p., QD) was started at 4 weeks of age. Body weights were measured before the treatment onset and continued twice a week until the end of the study. Fine motor kinematic analysis and rotarod test were performed at 10 weeks of age and the open field activity and clasping behavior were measured at 12 weeks of age for all mice. At 8 and 12 weeks of age the glucose uptake was measured by ^18F-FDG PET and the striatal metabolites were measured using MR spectroscopy for 9-10 mice per group. At 13 weeks of age 9-10 mice per group were subjected to tissue sample collection, and the brain and blood samples were collected. The blood samples were used to prepare peripheral blood mononuclear cells (PBMCs) on which the flow cytometry/luminescence analysis was performed for following assays: mitochondrial reactive oxygen species (ROS) (MitoSox), and ATP levels (Cell TiterGlow). […]
Rotarod Test—At 10 weeks of age all mice were subjected to rotarod test. […] The latency to fall from the rod was recorded.
For orientation: The rotarod test checks motor coordination on a turning rod.

As for `Cc1cc(O)cc(C)c1C[C@H](NC(=O)[C@H](N)CCCNC(=N)N)C(=O)N[C@@H](CCCCN)c1nc(Cc2ccccc2)no1.Cl.Cl` [Compound (Ia), (R)-2-amino-N—((S)-1-(((S)-5-amino-1-(3-benzyl-1,2,4-oxadiazol-5-yl)pentyl)amino)-3-(4-hydroxy-2,6-dimethylphenyl)-1-oxopropan-2-yl)-5-guanidinopentanamide], in experiment [1] (5 mg/kg i.p. QD), the “body weight compared to vehicle treated R6/2 mice” value is reported as “non-significantly higher level”. Moreover, the “body weight, treated R6/2 groups vs vehicle treated R6/2 mice” value in experiment [1] (0.5 or 5 mg/kg i.p. QD from 4 to 13 weeks of age, p>0.05, Mixed-effects model (REML)) is recorded as “no significant differences”. Moreover, in the experiment on R6/2 mice [2] (5 mg/kg i.p. QD, p<0.05, One-way ANOVA), the “total distance traveled in the open field compared to vehicle treated R6/2 mice” value is “traveled longer total distance”. Further, the “total rearing frequency in the open field, between R6/2 groups” value with R6/2 mice [2] (0.5 or 5 mg/kg i.p. QD, p>0.05, One-way ANOVA) is recorded as “no significant differences”. In addition, the “latency to fall in rotarod compared to vehicle treated R6/2 mice” value in the experiment on R6/2 mice [3] is listed as “increased latency”.
